Assay results taken from ChEMBL document CHEMBL3352491, “Novel semicarbazides and ureas of primaquine with bulky aryl or hydroxyalkyl substituents: synthesis, cytostatic and antioxidative activity” (Eur J Med Chem, 2014).

Tests used:
[1] = tested on: SW-620; test: Cytostatic activity against human SW620 cells assessed as growth inhibition after 3 to 4 days by MTT assay; format: functional, cell-based
[2] = Antioxidant activity assessed as inhibition of lipid peroxidation at 100 uM by spectrophotometry; format: physicochemical
[3] = tested on: HeLa; test: Cytostatic activity against human HeLa cells assessed as growth inhibition after 3 to 4 days by MTT assay; format: functional, cell-based
[4] = Cytostatic activity against human MIAPaCa2 cells assessed as growth inhibition after 3 to 4 days by MTT assay; format: functional, cell-based; details: MIA PaCa-2
[5] = Cytostatic activity against human H460 cells assessed as growth inhibition after 3 to 4 days by MTT assay; format: functional, cell-based; details: NCI-H460
[6] = Antioxidant activity assessed as DPPH scavenging activity at 100 uM after 20 mins by spectrophotometry; format: physicochemical
[7] = Cytostatic activity against human Molt4/C8 cells assessed as growth inhibition after 3 to 4 days by MTT assay; format: functional, cell-based; details: MOLT-4
[8] = tested on: MCF7; test: Cytostatic activity against human MCF7 cells assessed as growth inhibition after 3 to 4 days by MTT assay; format: functional, cell-based
[9] = tested on: CCRF-CEM; test: Cytostatic activity against human CEM cells assessed as growth inhibition after 3 to 4 days by MTT assay; format: functional, cell-based
[10] = Antioxidant activity assessed as DPPH scavenging activity at 100 uM after 60 mins by spectrophotometry; format: physicochemical; details: 1 h
[11] = tested on: L1210; test: Cytostatic activity against mouse L1210 cells assessed as growth inhibition after 3 to 4 days by MTT assay; format: functional, cell-based
[12] = target: Lipoxygenase (Glycine max) (UniProt Q39829); test: Inhibition of soybean LOX using sodium linoleate as substrate at 100 uM by spectrophotometry
[13] = target: Lipoxygenase (Glycine max, UniProt Q39829); test: Inhibition of soybean LOX using sodium linoleate as substrate by spectrophotometry

Structure (SMILES)	IC50 [1]	inhibition (INH) [2]	IC50 [3]	IC50 [4]	IC50 [5]	Activity [6]	IC50 [7]	IC50 [8]	IC50 [9]	Activity [10]	IC50 [11]	inhibition [12]	IC50 ([13]; read-out: IC50)	IC50 [13]
CCOC(=O)N(C)C(c1ccccc1)c1ccccc1	27 µM	Not Active	80 µM	94 µM	≥ 100 µM	Not Active	105 µM	26 µM	108 µM	Not Active	96 µM	–	–	–
Cc1c(C)c2c(c(C)c1O)CCC(C)(C(=O)O)O2 (stereo not drawn) [TROLOX]	–	63%	–	–	–	–	–	–	–	–	–	–	–	–
COc1cc(NC(C)CCCNC(=O)Nc2ccc(Cl)c(C(F)(F)F)c2)c2ncccc2c1 (stereo not drawn)	23 µM	61%	3.9 µM	4 µM	28 µM	20%	3.4 µM	4 µM	3.1 µM	21%	3.6 µM	43%	–	–
COc1cc(NC(C)CCCNC(=O)NNC(=O)NC(c2ccccc2)c2ccc(Cl)cc2)c2ncccc2c1 (stereo not drawn)	3 µM	77%	6.9 µM	6 µM	3 µM	30%	9.6 µM	2 µM	5.5 µM	55%	8.8 µM	–	70.5 µM	–
COc1cc(NC(C)CCCNC(=O)NNC(=O)N(C)C(c2ccccc2)c2ccccc2)c2ncccc2c1 (stereo not drawn)	27 µM	69%	22 µM	18 µM	16 µM	44%	19 µM	5 µM	10 µM	73%	16 µM	44%	–	–
CN(C(=O)NN)C(c1ccccc1)c1ccccc1	> 100 µM	7%	174 µM	127 µM	> 100 µM	24%	144 µM	≥ 100 µM	127 µM	47%	≥ 250 µM	–	–	–
COc1cc(NC(C)CCCNC(=O)NNC(=O)NCCCC(C)Nc2cc(OC)cc3cccnc23)c2ncccc2c1 (stereo not drawn)	> 100 µM	65%	67 µM	69 µM	94 µM	18%	≥ 250 µM	0.2 µM	87 µM	37%	92 µM	31%	–	–
COc1cc(NC(C)CCCNC(=O)NNC(=O)NC(CO)(CO)CO)c2ncccc2c1 (stereo not drawn)	> 100 µM	49%	> 250 µM	> 250 µM	> 100 µM	18%	> 250 µM	28 µM	> 250 µM	40%	> 250 µM	6%	–	–
COc1cc(NC(C)CCCNC(=O)NNC(=O)NCCO)c2ncccc2c1 (stereo not drawn)	> 100 µM	27%	196 µM	≥ 250 µM	> 100 µM	Not Active	> 250 µM	13 µM	> 250 µM	20%	> 250 µM	–	–	Not Active
COc1cc(NC(C)CCCNC(=O)NNC(=O)NCCCO)c2ncccc2c1 (stereo not drawn)	> 100 µM	45%	> 250 µM	≥ 250 µM	> 100 µM	9%	> 250 µM	13 µM	> 250 µM	20%	> 250 µM	–	–	Not Active
COc1cc(NC(C)CCCNC(=O)N(C)C(c2ccccc2)c2ccccc2)c2ncccc2c1 (stereo not drawn)	> 100 µM	79%	121 µM	21 µM	≥ 100 µM	20%	10 µM	9 µM	5.2 µM	16%	6.7 µM	–	–	–
COc1cc(NC(C)CCCNC(=O)NNC(=O)NCCNC(c2ccccc2)(c2ccccc2)c2ccccc2)c2ncccc2c1 (stereo not drawn)	7 µM	88%	10 µM	5 µM	4 µM	30%	8 µM	2 µM	4.2 µM	41%	6.2 µM	–	100 µM	–
O=C(NC(c1ccccc1)c1ccc(Cl)cc1)n1nnc2ccccc21 (stereo not drawn)	23 µM	63%	87 µM	110 µM	18 µM	24%	176 µM	42 µM	116 µM	12%	67 µM	28%	–	–
COc1cc(NC(C)CCCNC(=O)NCCNC(c2ccccc2)(c2ccccc2)c2ccccc2)c2ncccc2c1 (stereo not drawn)	54 µM	89%	38 µM	40 µM	> 100 µM	Not Active	210 µM	45 µM	10 µM	12%	40 µM	–	93 µM	–
COc1cc(NC(C)CCCNC(=O)NCCCC(C)Nc2cc(OC)cc3cccnc23)c2ncccc2c1 (stereo not drawn)	> 100 µM	89%	> 250 µM	186 µM	> 100 µM	20%	> 250 µM	6 µM	5 µM	32%	92 µM	6%	–	–
COc1cc(NC(C)CCCNC(=O)NNC(=O)Nc2ccc(Cl)c(C(F)(F)F)c2)c2ncccc2c1 (stereo not drawn)	15 µM	63%	17 µM	18 µM	13 µM	64%	19 µM	2 µM	14 µM	90%	19 µM	–	–	Not Active
COc1cc(NC(C)CCCNC(=O)NN)c2ncccc2c1 (stereo not drawn)	> 100 µM	70%	≥ 250 µM	≥ 250 µM	> 100 µM	61%	≥ 250 µM	16 µM	> 250 µM	82%	> 250 µM	42%	–	–
COc1ccc(C(=NNC(=O)NCCCC(C)Nc2cc(OC)cc3cccnc23)c2ccc(OC)cc2)cc1 (stereo not drawn)	> 100 µM	98%	> 250 µM	> 250 µM	> 100 µM	5%	> 250 µM	6 µM	> 250 µM	14%	> 250 µM	–	60 µM	–
COc1cc(NC(C)CCCNC(=O)NNC(=O)NCCCCCO)c2ncccc2c1 (stereo not drawn)	> 100 µM	54%	≥ 250 µM	168 µM	> 100 µM	14%	≥ 250 µM	4 µM	170 µM	32%	> 250 µM	4%	–	–
CCOC(=O)NC(c1ccccc1)c1ccc(Cl)cc1 (stereo not drawn)	> 100 µM	21%	> 250 µM	142 µM	> 100 µM	Not Active	> 250 µM	> 100 µM	> 250 µM	Not Active	> 250 µM	–	–	–
O=C1NCCN1C(c1ccccc1)(c1ccccc1)c1ccccc1	≥ 100 µM	20%	102 µM	31 µM	> 100 µM	Not Active	21 µM	63 µM	27 µM	Not Active	68 µM	6%	–	–
NNC(=O)NC(c1ccccc1)c1ccc(Cl)cc1 (stereo not drawn)	> 100 µM	52%	182 µM	178 µM	> 100 µM	14%	≥ 250 µM	≥ 100 µM	217 µM	27%	≥ 250 µM	9%	–	–
COc1cc(NC(C)CCCNC(=O)NNC(=O)N(CCO)CCO)c2ncccc2c1 (stereo not drawn)	> 100 µM	43%	> 250 µM	> 250 µM	> 100 µM	25%	> 250 µM	29 µM	> 250 µM	45%	> 250 µM	30%	–	–
O=C(NC(c1ccccc1)c1ccc(Cl)cc1)NC(c1ccccc1)c1ccc(Cl)cc1 (stereo not drawn)	> 100 µM	33%	> 250 µM	97 µM	> 100 µM	Not Active	> 250 µM	> 100 µM	> 250 µM	Not Active	250 µM	38%	–	–
